Measurements reported in US20260209208A1, “PHENYL-PYRAZOLE CARBOXAMIDE COMPOUNDS” (Acrivon Therapeutics, Inc., priority 2022, published 2026).

What was measured:
[1] = biological target: T1, recombinant human PMYT-1 (Myt1 kinase) (Homo sapiens, UniProt Q99640); experiment: LanthaScreen Europium (Eu) Kinase Binding Assay for Myt1 kinase; settings: TR-FRET tracer 178 displacement, GST-tagged full length PMYT-1, 60 min, room temperature; mean IC50; read-out: LANTHA Kinase Binding for PMyt1
T1 construct: full length PMYT-1 was expressed by baculovirus in insect cells using a N-terminal GST tag; purchased Invitrogen A30984; host or cells: insect cells (baculovirus)
T1 sequence (Q99640 1-499): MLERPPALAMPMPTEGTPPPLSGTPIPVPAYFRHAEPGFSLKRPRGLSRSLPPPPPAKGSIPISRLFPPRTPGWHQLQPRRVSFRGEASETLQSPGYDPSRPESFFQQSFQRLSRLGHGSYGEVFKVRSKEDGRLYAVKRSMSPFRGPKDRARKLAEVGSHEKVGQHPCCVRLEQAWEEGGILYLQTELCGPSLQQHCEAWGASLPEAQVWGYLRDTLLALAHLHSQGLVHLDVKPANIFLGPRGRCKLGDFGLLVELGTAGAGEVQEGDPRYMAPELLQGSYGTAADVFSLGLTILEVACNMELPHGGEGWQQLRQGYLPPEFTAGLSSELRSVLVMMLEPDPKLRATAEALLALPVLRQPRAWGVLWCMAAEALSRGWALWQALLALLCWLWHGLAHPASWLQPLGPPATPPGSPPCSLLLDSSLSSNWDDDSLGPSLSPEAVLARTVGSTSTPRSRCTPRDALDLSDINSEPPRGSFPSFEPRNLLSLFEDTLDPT
Source text: We used a LanthaScreen Europium (Eu) Kinase Binding Assay to determine the binding of provided compounds to Myt1 kinase. The assay utilizes an Alexa Fluor 647-labeled ATP competitive kinase tracer that binds to the ATP binding site of a GST-tagged Myt1 kinase, while a europium (Eu) labeled antibody binds to the GST tag. The proximity of fluorescently labeled kinase tracer and europium (Eu) donor fluorophore antibody leads to fluorescence resonance energy transfer (FRET) to the fluorescence label (acceptor) upon excitation of the Eu (donor). Displacement of tracer from the ATP-binding site by a test compound disturbs the proximity between both labels thus lowering the FRET.
This time resolved-FRET binding assay was performed in white 384-well low volume plates (Greiner, cat #784075), at room temperature in kinase buffer A (KBA; Invitrogen cat # PV3189), consisting of 50 mM HEPES-NaOH (pH 7.5), 0.01% Brij-35, 10 mM MgCl2, and 1 mM EGTA. 5 μl of compound (diluted in reaction buffer, to 1% DMSO) were added to various wells in the plate, followed by 5 μl each of recombinant human PMYT-1 (full length PMYT-1 was expressed by baculovirus in insect cells using a N-terminal GST tag (MW: 80.8 kDa) (Invitrogen cat #A30984) and LanthaScreen Eu-anti-GST antibody (Invitrogen, cat #PV5594). After this, 5 μl of kinase tracer 178 (Invitrogen, cat #PV5593) was added to the plate and the plate was incubated for 60 minutes at room temperature. The final assay conditions in each well were: 3 nM tracer 178, 2.5 nM PMYT-1 and 1 nM Eu-labeled antibody in total assay volume of 15 μl. An Envision 2104 (Perkin-Elmer) Plate Reader with the following time-resolve fluorescence setting was used for performing LanthaScreen kinase binding assay. • Excitation 320 nm (30 nm bandpass) • Kinase Tracer Emission 665 nm (10 nm bandpass) • LanthaScreen Eu-anti-Tag Antibody Emission 615 nm (10 nm bandpass) • Dichroic Mirror Instrument dependent • Delay Time 100 μs • Integration Time 200 μs
To calculate the emission ratio, the acceptor/tracer emission ([…]) was divided by the antibody/donor emission ([…]) and the average of duplicate measurement was used for calculations. Data plotting, analysis of binding, and curve fitting was done using Excel add-in XLfit version 5.5.0.5 (IDBS, Guildford, United Kingdom).

[2] = biological target: T2, Myt1 Kinase (Homo sapiens, UniProt Q99640); experiment: AlphaLISA SureFire Ultra Human Phospho-CDK1 (Thr14) target engagement assay in DAOY cells; assay type: cell-based; settings: 4 h incubation, Cdk1 phosphorylated on threonine 14, read-out: TE Myt1 Kinase (AlphaLISA)
T2 construct: endogenous in cells; host or cells: DAOY medulloblastoma cells (ATCC)
T2 sequence (Q99640 1-499): T1 sequence (Q99640 1-499)
Protocol: The following cellular assay was used to determine the extent to which the compounds disclosed herein inhibit phosphorylation of CDK1 at Thr 14.
(§1) DAOY medulloblastoma cell line (ATCC) was cultured in Minimum Essential Medium Eagle supplemented with 10% fetal calf serum (Sigma), 1% Penicillin-Streptomycin and 10 mM HEPES buffer (HyClone). Cell cultures were kept in a humidified incubator at 37° C. and 5% CO2. Cells were routinely tested for Mycoplasma contamination.
For target engagement assessment, quantification of Cdk1 phosphorylated on threonine 14 was detected using the AlphaLISA® SureFire® Ultra™ Human Phospho-CDK1 (Thr14) assay (Perkin Elmer). DAOY cells were seeded into tissue culture 96-well plates (VWR) to a density of 10,000 cells per well. Twenty-four hours post-seeding cells were incubated for 4 h with test compounds at concentrations ranging from 7 to 5000 nM. Cells were washed with PBS and lysed in 50 μl AlphaLISA® lysis buffer before freezing at −80° C. Ten μl of the lysate was transferred to 384 well plates and incubated with AlphaLISA® donor and acceptor beads according to the manufacturer's instructions. Dose response curves and EC50 values were calculated and visualized using GraphPad Prism version 9.

[3] = system: DAOY cells; experiment: Cell Titer Glo viability assay; assay type: cell-based; settings: Homo sapiens, 144 hours, Cell Titer Glo 2.0
Protocol: as §1
DAOY cells were seeded at a density of 250 cells per well in tissue culture 384 well plates (Corning Costar). After overnight incubation, cells were incubated with test compounds at concentrations ranging from 0.17 to 10,000 nM. Viability compared to untreated control was assessed at 144 hours using Cell Titer Glo® 2.0 Viability Assay (Promega).

`Cc1ccc(O)c(C)c1-n1nc(-c2ccco2)c(C(N)=O)c1N` (single isomer, unassigned) [Compound 104, 5-amino-3-(furan-2-yl)-1-(3-hydroxy-2,6-dimethylphenyl)-1H-pyrazole-4-carboxamide] gave an IC50 [1] of no more than 10 nM, an EC50 [2] of no more than 250 nM and an EC50 [3] of 500 to 1000 nM.
`Cc1ccc(O)c(C)c1-n1nc(-c2cc(Br)co2)c(C(N)=O)c1N` (single isomer, unassigned) [Compound 106, 5-amino-3-(4-bromofuran-2-yl)-1-(3-hydroxy-2,6-dimethylphenyl)-1H-pyrazole-4-carboxamide] gave an IC50 [1] of no more than 10 nM, an EC50 [2] of no more than 250 nM and an EC50 [3] of no more than 500 nM.
`Cc1ccc(O)c(C)c1-n1nc(-c2cc3ccccc3o2)c(C(N)=O)c1N` (single isomer, unassigned) [Compound 107, 5-amino-3-(benzofuran-2-yl)-1-(3-hydroxy-2,6-dimethylphenyl)-1H-pyrazole-4-carboxamide] gave an IC50 [1] of no more than 10 nM, an EC50 [2] of no more than 250 nM and an EC50 [3] of no more than 500 nM.
Compound `Cc1ccc(O)c(C)c1-n1nc(-c2ccccc2)c(C(N)=O)c1N` [Compound 9, 5-amino-1-(3-hydroxy-2,6-dimethylphenyl)-3-phenyl-1H-pyrazole-4-carboxamide; trifluoroacetic acid] has an IC50 [1] of 10 to 100 nM, an EC50 [2] of no more than 250 nM and an EC50 [3] greater than 1000 nM.
For `Cc1ccc(O)c(C)c1-n1nc(-c2ccccn2)c(C(N)=O)c1N` [Compound 35], the IC50 [1] was no more than 10 nM, the EC50 [2] was no more than 250 nM and the EC50 [3] was greater than 1000 nM.
`Cc1ccc(O)c(C)c1-n1nc(-c2cc3ccccc3o2)c(C(N)=O)c1N` [Compound 72, 5-amino-3-(1-benzofuran-2-yl)-1-(3-hydroxy-2,6-xylyl)-4-pyrazolecarboxamide] showed an IC50 [1] of no more than 10 nM, an EC50 [2] of no more than 250 nM and an EC50 [3] of no more than 500 nM.
Compound `Cc1ccc(O)c(C)c1-n1nc(-c2ccc(Br)o2)c(C(N)=O)c1N` [Compound 73, 5-amino-3-(5-bromo-2-furyl)-1-(3-hydroxy-2,6-xylyl)-4-pyrazolecarboxamide] has an IC50 [1] of no more than 10 nM, an EC50 [2] of no more than 250 nM and an EC50 [3] of no more than 500 nM.
`Cc1ccc(O)c(C)c1-n1nc(-c2cc(Br)co2)c(C(N)=O)c1N` [Compound 79, 5-amino-3-(4-bromo-2-furyl)-1-(3-hydroxy-2,6-xylyl)-4-pyrazolecarboxamide] showed an IC50 [1] of no more than 10 nM, an EC50 [2] of no more than 250 nM and an EC50 [3] of no more than 500 nM.
`Cc1ccc(O)c(C)c1-n1nc(-c2ccc(Cl)o2)c(C(N)=O)c1N` [Compound 80, 5-amino-3-(5-chloro-2-furyl)-1-(3-hydroxy-2,6-xylyl)-4-pyrazolecarboxamide] showed an IC50 [1] of no more than 10 nM, an EC50 [2] of no more than 250 nM and an EC50 [3] greater than 1000 nM.
Compound `Cc1ccc(-c2nn(-c3c(C)ccc(O)c3C)c(N)c2C(N)=O)o1` [Compound 81, 5-amino-1-(3-hydroxy-2,6-xylyl)-3-(5-methyl-2-furyl)-4-pyrazolecarboxamide] has an IC50 [1] of no more than 10 nM, an EC50 [2] of no more than 250 nM and an EC50 [3] of 500 to 1000 nM.
`Cc1ccc(O)c(C)c1-n1nc(-c2coc3ccccc23)c(C(N)=O)c1N` [Compound 82, 5-amino-3-(1-benzofuran-3-yl)-1-(3-hydroxy-2,6-xylyl)-4-pyrazolecarboxamide] showed an IC50 [1] of no more than 10 nM, an EC50 [2] of 500 to 1000 nM and an EC50 [3] greater than 1000 nM.
Compound `Cc1ccc(O)c(C)c1-n1nc(-c2ccc(-c3cccnc3)o2)c(C(N)=O)c1N` [Compound 86, 5-amino-1-(3-hydroxy-2,6-xylyl)-3-[5-(3-pyridyl)-2-furyl]-4-pyrazolecarboxamide] has an IC50 [1] of no more than 10 nM, an EC50 [2] of no more than 250 nM and an EC50 [3] of 500 to 1000 nM.
`Cc1ccc(O)c(C)c1-n1nc(-c2ccc(-c3ccccc3)o2)c(C(N)=O)c1N` [Compound 87, 5-Amino-1-(3-hydroxy-2,6-xylyl)-3-(5-phenyl-2-furyl)-4-pyrazolecarboxamide] showed an IC50 [1] of no more than 10 nM, an EC50 [2] of no more than 250 nM and an EC50 [3] of no more than 500 nM.
With `Cc1ccc(O)c(C)c1-n1nc(-c2cc(-c3ccccc3)co2)c(C(N)=O)c1N` [Compound 88, 5-amino-1-(3-hydroxy-2,6-xylyl)-3-(4-phenyl-2-furyl)-4-pyrazolecarboxamide] the IC50 [1] was no more than 10 nM, the EC50 [2] was no more than 250 nM and the EC50 [3] was no more than 500 nM.
`Cc1coc(-c2nn(-c3c(C)ccc(O)c3C)c(N)c2C(N)=O)c1` [Compound 90, 5-amino-1-(3-hydroxy-2,6-xylyl)-3-(4-methyl-2-furyl)-4-pyrazolecarboxamide] was tested, and the IC50 [1] was no more than 10 nM, the EC50 [2] was no more than 250 nM and the EC50 [3] was no more than 500 nM.
In the case of `NC(=O)c1c(-c2cc(Br)co2)nn(-c2c(Cl)ccc(O)c2Cl)c1N` [Compound 92, 5-amino-3-(4-bromo-2-furyl)-1-(2,6-dichloro-3-hydroxyphenyl)-4-pyrazolecarboxamide], the IC50 [1] is reported as 10 to 100 nM and the EC50 [2] is reported as 500 to 1000 nM.
With `NC(=O)c1c(-c2cc3ccccc3o2)nn(-c2c(Cl)ccc(O)c2Cl)c1N` [Compound 93, 5-amino-3-(1-benzofuran-2-yl)-1-(2,6-dichloro-3-hydroxyphenyl)-4-pyrazolecarboxamide] the IC50 [1] was 10 to 100 nM and the EC50 [2] was 500 to 1000 nM.
For `Cc1ccc(O)c(C)c1-n1nc(-c2cc(-c3cccnc3)co2)c(C(N)=O)c1N` [Compound 94, 5-amino-1-(3-hydroxy-2,6-xylyl)-3-[4-(3-pyridyl)-2-furyl]-4-pyrazolecarboxamide], the IC50 [1] was no more than 10 nM, the EC50 [2] was no more than 250 nM and the EC50 [3] was no more than 500 nM.
In the case of `Cc1ccc(O)c(C)c1-n1nc(-c2cc(-c3ccncc3)co2)c(C(N)=O)c1N` [Compound 95, 5-amino-1-(3-hydroxy-2,6-xylyl)-3-[4-(4-pyridyl)-2-furyl]-4-pyrazolecarboxamide], the IC50 [1] is reported as no more than 10 nM, the EC50 [2] is reported as no more than 250 nM and the EC50 [3] is reported as no more than 500 nM.
With `C=Cc1coc(-c2nn(-c3c(C)ccc(O)c3C)c(N)c2C(N)=O)c1` [Compound 96, 5-amino-1-(3-hydroxy-2,6-xylyl)-3-(4-vinyl-2-furyl)-4-pyrazolecarboxamide] the IC50 [1] was no more than 10 nM, the EC50 [2] was no more than 250 nM and the EC50 [3] was no more than 500 nM.
Work on `Cc1ccc(O)c(C)c1-n1nc(-c2ccc(-c3ccccn3)o2)c(C(N)=O)c1N` [Compound 100, 5-amino-1-(3-hydroxy-2,6-xylyl)-3-[5-(2-pyridyl)-2-furyl]-4-pyrazolecarboxamide] yielded an EC50 [2] of 250 to 500 nM and an EC50 [3] greater than 1000 nM.
Work on `Cc1ccc(O)c(C)c1-n1nc(-c2ccsc2)c(C(N)=O)c1N` [Compound 120] yielded an IC50 [1] of no more than 10 nM and an EC50 [2] of 250 to 500 nM.
With `Cc1ccc(O)c(C)c1-n1nc(-c2nccn2C)c(C(N)=O)c1N` [Compound 124] the IC50 [1] was 10 to 100 nM and the EC50 [2] was greater than 1000 nM.
In the case of `Cc1ccc(O)c(C)c1-n1nc(-c2ncc[nH]2)c(C(N)=O)c1N` [Compound 125], the IC50 [1] is reported as no more than 10 nM and the EC50 [2] is reported as 500 to 1000 nM.
